Measured values taken from US9339486B2, “Heterocyclic modulators of cannabinoid receptors” (THE CLEVELAND CLINIC FOUNDATION, priority 2008, dated 2016).

Experiments:
[1] = tested on: naïve rats; assay: Open field chamber testing; assay type: in vivo, rat; settings: i.p.: Example 3 15 mg/kg, WIN 55,212-2 7 mg/kg, haloperidol 1 mg/kg
Experimental: The automated open-field chamber (Med Associates ENV-515 Test Environment, St. Albans, Vt.) 43.2×43.2×30.5 cm (L×W×H) equipped with three pairs of 16 infrared arrays that continually monitored the animal's movement was used to determine potential CNS effects of the compound of Example 3, WIN55212-2, and haloperidol in naïve rats. Rats were individually tested 15 min after i.p. drug administration. The infrared beams were set 2.5 cm apart horizontally and at a height of 3 cm above the floor, with the rearing array set at 12 cm from the floor. The area in the box was divided into 4 equal quadrants (zones), with data collected within each quadrant and across quadrants (zone entries). An ambulatory movement was defined as a motion of at least 5 cm and was coded by quadrant. Vertical movements were counted when the rat moved vertically a minimum of 12 cm from the floor. Zone entries were defined as an entry into a zone (from another zone). Entry into a zone was counted when the rat was far enough into the zone to break 2 sets of photoelectric beams for the new zone beams during an ambulatory movement.

[2] = tested on: nerve-ligation model; assay: Assessment of mechanical allodynia in rats, L5/6 spinal-nerve ligation, von Frey (IP or IT); assay type: in vivo, rat
Experimental: All experiments were performed on male Sprague-Dawley rats (200-250 g). Rats were housed individually in plastic cages with soft bedding at room temperature and maintained on a 12-hour light-dark cycle with free access to food and water.
Neuropathic pain was induced following the methods of Kim and Chung. Kim S H, Chung J M. An experimental model for peripheral neuropathy produced by segmental spinal nerve ligation in the rat. Pain 1992; 50:355-63. Rats were anesthetized and placed prone under a microsurgical apparatus. A midline incision was made on the back, and the right paraspinal muscles were separated from the spinous processes at the L4-S2 levels. The L6 transverse process was carefully removed, and the L4/5 spinal nerves were identified. The L5 nerve was tightly ligated with a 6-0 silk suture. The right L6 spinal nerve was then located just caudal and medial to the sacroiliac junction and tightly ligated with a silk suture.
Two weeks later after spinal nerve ligation, Intrathecal catheters (PE-10 tubing) was inserted into the rats while they were anesthetized with isoflurane, as described by Yaksh and Rudy. Yaksh T L, Rudy T A. Chronic catheterization of the spinal subarachnoid space. Physiology & Behavior 1976; 17:1031-6. A midline incision was made on the back of the neck. The muscle was freed at the attachment to the skull exposing the cisternal membrane. The membrane was opened with a stab blade and an 8.5 cm polyethylene (PE-10) catheter was then inserted through the cisternal opening, and passed carefully and caudally into the intrathecal space at the L1-L3 spinal segments. The end of the catheter was tunneled through the subcutaneous space over the frontal bones, flushed with 10 μl saline, and then plugged with a short length of wire. Animal testing was performed 5-7 days after intrathecal catheter placement.
To assess mechanical allodynia, the mechanical paw withdrawal threshold was measured with a series of von Frey hairs (range 0.4-15 g). Rats were placed in elevated Perspex enclosures (28 cm×15 cm×18 cm) with wire mesh bases and given 15-20 min to acclimatize to the testing environment. Rats will be allowed to acclimatize for 30 min in a clear plastic cage with a wire mesh bottom. The calibrated von Frey filament fibers were applied to the hindpaw briefly for 6 seconds to determine the paw withdrawal threshold before and after drug injection (intraperitoneally or intrathecally). A series of von Frey filaments with exponentially incremental stiffness (0.4, 0.7, 1.2, 2.0, 3.6, 5.5, 8.5 and 15 g) were used to measure the 50% threshold for hindpaw withdrawal in awake, unrestrained rats. Chaplan S R, Bach F W, Pogrel J W, Chung J M, Yaksh T L. Quantitative assessment of tactile allodynia in the rat paw. Journal of Neuroscience Methods 1994; 53:55-63. Brisk paw withdrawal from the pressure of a filament gently bent against the plantar paw was defined as a positive response, and absence of withdrawal within 6 s as a negative response. Filaments were touched to the hindpaw in sequential ascending or descending order until the threshold of response is crossed (allowing about 10 s between each increment of the von Frey filaments). Each time the threshold is crossed, the direction of stimulus presentation was reversed and the procedure will be resumed. Four responses were collected after the first threshold detection, and the 50% withdrawal thresholds were interpolated. In cases where response thresholds fell outside the range of detection, 15.00 and 0.25 g were, respectively, assigned for continuous negative or positive responses to the limit of stimuli.
The compound of Example 3 was prepared in dimethyl sulfoxide (DMSO).

[3] = molecular target: CB2 (Homo sapiens (Human), UniProt P34972); assay: Radioligand competition binding, CHO-K1 membranes, [3H]CP 55,940; settings: 1 nM [3H]CP 55,940, read-out: Mean Ki (nM) hCB2
Experimental: Mukherjee, S., et al., Species Comparison and Pharmacological Characterization of Rat and Human CB2 Cannabinoid Receptors, Eur J Pharmacol, 2004, 505:1-9. […] IC50 were determined by non-linear regression using one site competition equation. The inhibition constants (Ki) were calculated using the Cheng Prusoff equation (Ki=IC50/(1+(L/KD)), where L=concentration of radioligand in the assay, and KD=affinity of the radioligand for the receptor).

[4] = molecular target: hCB2 (human CB2) receptors (Homo sapiens (Human), UniProt P34972); assay: GTPγ[35S] functional assay, CHO membrane extracts hCB2; assay type: biochemical
Experimental: Functional activity was evaluated using GTPγ[^35S] assay in CHO membrane extracts expressing recombinant hCB1 (human CB1) receptors or hCB2 (human CB2) receptors. The assay relies on the binding of GTPγ[^35S], a radiolabeled nonhydrolyzable GTP analogue, to the G protein upon binding of an agonist of the G-protein-coupled receptor. In this system, agonists stimulate GTPγ[^35S] binding whereas neutral antagonist have no effect and inverse agonists decrease GTPγ[^35S] basal binding.
The compound of Example 3 was solubilized in 100% DMSO at a concentration of 10 mM within 4 hours of the first testing session (master solution). A predilution for the dose response curve was performed in 100% DMSO and then diluted 100 fold in assay buffer at a concentration 2 fold higher than the concentration to be tested. […] For GTPγS membranes were mixed with GDP diluted in assay buffer to give 30 μM solution (volume:volume) and incubated for at least […] on ice. In parallel, GTPγ[^35S] (GE Healthcare, Catalogue number SJ1308) were mixed with the beads (PVT-WGA (GE Healthcare, RPNQ001)), diluted in assay buffer at 50 mg/ml (0.5 mg/10 μl) (volume:volume) just before starting the reaction. […] Then the plates were centrifuged for 10 min at 2000 rpm and counted for 1 min/well with a PerkinElmer TopCount reader. […]

In the case of `CC1(Cc2ccccc2)COc2cc(C(=O)N3CCCCC3)ccc21` (centres unmarked) [Example 3, 3-benzyl-3-methyl-2,3-dihydrobenzofuran-6-carboxylic acid-piperidine amide], the “exploratory behavior in the open field (distance traveled, ambulatory time, rearing, zone entries)” value [1] is reported as “absence of psychoactive cannabinoid effect”, the “mechanical paw withdrawal threshold maintained” value ([2]; IP 30 mg/kg) is reported as 15 g and the “time of peak effect following IP administration” value ([2]; IP 30 mg/kg) is reported as at most 5 min. The “effect on mechanical paw withdrawal threshold” value ([2]; IP 30 mg/kg in 0.5 ml) was “increase in mechanical paw withdrawal threshold”, the “duration of high threshold” value ([2]; IP 30 mg/kg, 2-h observation period) was over 2 h and the “behavioral abnormalities or side effects” value ([2]; IT administration) was “No behavioral abnormalities or side effects were noted”. For the same molecule, the “effect on mechanical paw withdrawal threshold” value ([2]; IT administration) was “increase in mechanical paw withdrawal threshold”, the “duration of increase in mechanical paw withdrawal threshold” value ([2]; IT administration, 90-min observation period) was at least 90 min and the Ki [3] was 422 ± 123 nM. It also gave an Emax [4] of 88% and an EC50 ([4]; read-out: Agonist EC50 (mean ± s.e. mean) GTPγ[35S] functional assays hCB2) of 0.128 µM.
